According to patent publication US20220064146A1, “KINASE INHIBITOR COMPOUNDS AND COMPOSITIONS AND METHODS OF USE” (ICAHN SCHOOL OF MEDICINE AT MOUNT SINAI, priority 2018, published 2022):

The molecules below were run against T1, DYRK1/DYRK1A (Homo sapiens, UniProt Q13627) (assay: DYRK1/DYRK1A IC50 assay (Reaction Biology Corp.)). Settings: DYRK1/DYRK1A assay from Reaction Biology Corp.; NI: No inhibition.
T1 construct: purchased Reaction Biology Corp. (assay service)
Format: biochemical

In order of rising IC50:
1. COc1cccc(Nc2ncc(-c3ccc4[nH]c(=O)[nH]c4c3)cn2)c1 [Compound 48h, 5-(2-((3-Methoxyphenyl)amino)pyrimidin-5-yl)-1H-benzo[d]imidazol-2(3H)-one]  23.5 nM
2. O=c1[nH]c2ccc(-c3cnc(NCc4cccs4)nc3)cc2[nH]1 [Compound 51b, 5-(2-((Thiophen-2-ylmethyl)amino)pyrimidin-5-yl)-1H-benzo[d]imidazol-2(3H)-one]  32.7 nM
3. O=c1[nH]c2ccc(-c3cnc(NCCCc4ccccc4)nc3)cc2[nH]1 [Compound 29l, 5-(2-((3-Phenylpropyl)amino)pyrimidin-5-yl)-1H-benzo[d]imidazol-2(3H)-one]  34 nM
4. O=c1[nH]c2ccc(-c3cnc(Nc4cccc(Cl)c4)nc3)cc2[nH]1 [Compound 48e, 5-(2-((3-Chlorophenyl)amino)pyrimidin-5-yl)-1H-benzo[d]imidazol-2 (3H)-one]  54.9 nM
5. O=c1[nH]c2ccc(-c3cnc(Nc4ccc(Cl)cc4)nc3)cc2[nH]1 [Compound 48f, 5-(2-((4-Chlorophenyl)amino)pyrimidin-5yl)-1H-benzo[d]imidazol-2 (3H)-one]  90.6 nM
6. O=c1[nH]c2ccc(-c3cnc(NCc4ccccc4)nc3)cc2n1C1CC1 [Compound 57c, 6-(2-(Benzylamino)pyrimidin-5-yl)-1-cyclopropyl-1H-benzo[d]imidazol-2(3H)-one]  714 nM
7. CC(C)n1c(=O)[nH]c2ccc(-c3cnc(NCc4ccccc4)nc3)cc21 [Compound 57b, 6-(2-(Benzylamino)pyrimidin-5-yl)-1-isopropyl-1H-benzo[d]imidazol-2(3H)-one]  4280 nM
